Measured values as given in patent US20230390282A1, “TREATMENT OF EYE CONDITIONS” (The University of Birmingham, priority 2020, published 2023).
“Also recorded” adds a separate entry of the source.

Columns and labels:
RGC [1] = conditions: 24 days after ONC
dorsal column (DC) axons = assay: T8 dorsal column (DC) crush model of spinal cord injury: axon regeneration, electrophysiology, sensory and locomotor tests; format: in vivo, rat; conditions: for DC axon regeneration: GAP43+ axons rostral to/beyond the lesion site
Procedure: DC crush injury model. Rats were injected subcutaneously with 0.05 ml Buprenorphine to provide analgesia prior to surgery and anaesthetised using 5% of Isoflurane in 1.8 ml/l of O2 with body temperature and heart rate monitored throughout surgery.
Chk2 inhibition studies in the DC crush injury model. […] Chk1i (LY2603618) was used at equimolar concentrations for each experiment. Rats were killed in a rising concentration of CO2 at either 28 d for immunohistochemistry and western blot analyses or 6 weeks for electrophysiology and functional tests.
Sham treated animals (partial laminectomy but no DC injury) were also included as additional controls. At 4 weeks after DC injury and treatment, ipsilateral L4/L5 DRG pairs were harvested, total RNA extracted using Trizol reagent as described above and knock down of Chk1 and Chk2 mRNA knockdown using quantitative qRT-PCR, as described above. Contralateral L4/L5 DRG pairs were treated the same as above and used as controls. […] This included western blot to determine pChk1 and pChk2 levels after shChk2 treatment. For these experiments, animals were randomly assigned to DC+shNull and DC+shChk2 groups each comprising n=6 rats and repeated on 3 independent occasions (total n=18 rats/group). […] Animals were allowed to survive for 6 weeks with functional testing (tape sensing+removal and ladder crossing tests) performed pre- and post-DC injury as described below. Electrophysiology was performed on the same set of animals at 6 weeks after DC injury and treatment as described below.
Quantification of DC axon regeneration. […] Briefly, the number of intersections of GAP43^+ fibers were counted through a dorsoventral orientated line in reconstructed serial parasagittal sections of the cord (serial 50μm-thick sections ˜70-80 sections/animal; n=10 rats/treatment)). Axon number was then represented as % of fibers counted at 4 mm above the lesion, where the DC was intact.
Electrophysiology. […] Briefly, with the experimenter masked to the treatment conditions, silver wire electrodes applied single-current pulses (0.05 ms) through a stimulus isolation unit in increments (0.2, 0.3, 0.6, 0.8, and 1.2 mA) at L1-L2 and compound action potentials (CAP) were recorded at C4-C5 along the surface of the midline spinal cord. Spike 2 software was then used to calculate CAP amplitudes between the negative deflection after the stimulus artifact and the next peak of the wave. CAP area was calculated by rectifying the negative CAP component (full-wave rectification) and measuring its area. At the different stimulation intensities. […] Representative CAP traces are processed output data from Spike 2 software.
Functional tests. […] Briefly, animals (n=6 rats/group, 3 independent repeats; total n=18/group) received training to master traversing the horizontal ladder for 1w before functional testing. Baseline parameters for all functional tests were established 2-3 d before injury. Animals were then tested 2 d after DC lesion+treatment and then weekly for 6 weeks. Experiments were performed by 2 observers (treatment conditions were masked) in the same order, the same time of day and each test performed for 3 individual trials. Horizontal ladder test: This tests the animals locomotor function and is performed on a 0.9-meter-long horizontal ladder with a diameter of 15.5 cm and randomly adjusted rungs with variable gaps of 3.5-5.0 cm. The total number of steps taken to cross the ladder and the left and right rear paw slips being were recorded and the mean error rate was then calculated by dividing the number of slips by the total number of steps taken.

[2] = test system: dorsal root ganglion neuron (DRGN) cultures; assay: Primary adult rat DRGN cultures: survival and neurite outgrowth; format: cell-based
Procedure: (§1) Rat DRGN and retinal cultures. […] Cells were cultured for 4 days in a humidified chamber at 37° C. and 5% CO2 before being subjected to quantitative RT-PCR or immunocytochemistry, as described below.

RGC [3] = assay: Optic neuritis model: RGC survival and RNFL thickness; format: in vivo, mice
Procedure: Induction of optic neuritis. […] Animals were intraperitoneally injected with 150 ng Bordetella pertussis toxin on day 0 and 2. Animals were monitored daily and assessed for the development of EAE. At the end of the experiment, animals were then killed by CO2 overdose.
Measurement of RNFL thinning using optical coherence tomography (OCT). A Spectralis HRA+OCT machine was used to capture OCT images. Examinations were recorded in both right (oculus dextrus, OD) and left eyes (oculus sinister, OS) of each animal at day 0 and day 21 after immunisation. […] A RNFL single exam using the automatic real time (ART) mode (allows averaging of 100 recordings) was produced for each mouse eye, which automatically measured RNFL thickness (μm) in a 30° circle surrounding the optic nerve head.

RGC [4] = assay: Glaucoma model (intracameral TGFβ): RGC survival; format: in vivo, rat; conditions: 30 days after the induction of glaucoma
Procedure: Induction of glaucoma. […] Intraocular pressure was measured using an iCare
Tonolab rebound tonometer (Icare, Helsinki, Finland).

RGC [5] = assay: Rat retinal cultures: RGC survival and neurite outgrowth; format: cell-based; conditions: 1-50 μM
Procedure: as §1

[6] = Chk2i: 3 weeks after injury, others over the whole 6 weeks

| improvement in RGC function measured by flash electroretinography (ERG) amplitude (RGC [1]) | Molecule | DC axon regeneration (dorsal column (DC) axons) | % DRGN with neurites ([2]; 4 days in culture) | mean neurite length ([2]; 4 days in culture, controls 12 μm) | effect on DRGN survival ([2]; 1-50 μM) | neurite outgrowth in DRGN ([2]; 4 days in culture) | DRGN survival ([2]; 4 days in culture, NBA-treated controls 40%) | effect on ERG traces (RGC [1]) | protection of RGC from death (RGC [3]; 21 days after induction) | protection against retinal nerve fibre layer thinning (RGC [3]; OCT at day 21) | mean CAP area at different stimulation intensities (dorsal column (DC) axons; 6 weeks after DC injury) | negative CAP amplitudes (dorsal column (DC) axons; 6 weeks after DC injury, all stimulation intensities) | ladder crossing test (locomotor function) outcome (dorsal column (DC) axons; [6]) | tape sensing/removal test (sensory function) outcome (dorsal column (DC) axons; [6]) | protection of RGC from death (RGC [4]) | effect on RGC survival (RGC [5]) |
| --- | --- | --- | --- | --- | --- | --- | --- | --- | --- | --- | --- | --- | --- | --- | --- | --- |
| > 83% | COc1cc2nc(-c3cc(F)ccc3O)nc(N[C@@H]3CNC[C@H]3C(C)(C)O)c2cc1OC [Chk2i] | significant DC axon regeneration | – | – | – | – | – | – | – | – | – | – | – | – | – | – |
| – | FGF2: positive control for DRGN cultures, pre-optimised 10 ng/ml | – | 42% | 180 μm | – | – | – | – | – | – | – | – | – | – | – | – |
| – | Cc1cnc(NC(=O)Nc2cc(Br)c(C)cc2OC[C@@H]2CNCCO2)cn1 [Chk1i] | no axon regeneration beyond the lesion site | – | – | no effect | no effect | no effect | no effect | no effect | no effect | significantly attenuated | significantly attenuated | significant deficit remains; also recorded: deficit remaining | significant deficit remained | no effect | no effect |
